The values below come from patent publication US4621073A, “Cyclic peptides having somatostatin activity” (Hoechst Aktiengesellschaft, priority 1983, dated 1986).

One experiment deals with blood glucose. Briefly: potentiation of the hypoglycemic effect of insulin in adrenalectomized rats. It counts as in vivo, rat.
The subject of a further experiment is gastric acid. Briefly: reduction of gastric acid after intravenous administration to the rat. The experiment is classed as in vivo. The following applies: i.v. dose of 30 μg/kg. The method, then:
The peptides according to the invention have the inhibitory properties of somatostatin, but their duration of action is considerably longer at lower doses. For example, after intravenous administration to the rat, these peptides reduce gastric acid with an ED50 of about 5 μg/kg. The reduction in gastric acid is maintained for 2 hours. […] A reduction in gastric acid is only brought about by infusing somatostatin. […] The new compounds can also be administered orally and intranasally. However, in these instances considerably higher doses are necessary because of the poorer absorption.

Non-standard residues stand in square brackets, D forms with d. Residues, ends and D or L forms follow the SMILES beside them.

`C[C@@H](O)[C@@H]1NC(=O)[C@H](CCCCN)NC(=O)[C@@H](Cc2c[nH]c3ccccc23)NC(=O)[C@H](Cc2ccccc2)NC(=O)[C@@H]2CCCN2C(=O)[C@H](Cc2ccccc2)NC1=O` [cyclo-(Pro-Phe-D-Trp-Lys-Thr-Phe)] (cyclo(PF[dW]KTF)): in the experiment with blood glucose (dose of as much as 0.318 μg/kg^-1. min^-1), the “effect on blood glucose” value is “completely ineffective”.

With `C[C@H](N)C(=O)NCC(=O)N[C@H]1CSSC[C@@H](C(=O)O)NC(=O)[C@H](CO)NC(=O)[C@H]([C@@H](C)O)NC(=O)[C@H](Cc2ccccc2)NC(=O)[C@H]([C@@H](C)O)NC(=O)[C@H](CCCCN)NC(=O)[C@H](Cc2c[nH]c3ccccc23)NC(=O)[C@H](Cc2ccccc2)NC(=O)[C@H](Cc2ccccc2)NC(=O)[C@H](CC(N)=O)NC(=O)[C@H](CCCCN)NC1=O` [somatostatin, Somatostatin], in the experiment on gastric acid, the “effect on gastric acid” value was “no effect whatever”. Turning to cyclo-(Aoc-Phe-D-Trp-Lys-Val-Phe), in the experiment with blood glucose, the “potentiation of the hypoglycemic effect of insulin, effect relative to cyclo-(Pro-Phe-D-Trp-Lys-Thr-Phe)” value was “at least twice”. Further, the “reduction of blood glucose” value with blood glucose (dose of 0.07 μg/kg^-1.min^-1) is reported as “up to 24%”.
